Values joined by “and” are separate entries in the source; they are usually repeats but may differ in a detail not shown here. Equal values may be shown once. Numbers after ± are expanded uncertainties.
Assay: molar heat capacity at constant pressure
Conditions: 101.33 kPa

O=Cc1ccc(Cl)cc1Cl [2,4-dichlorobenzaldehyde]
Conditions	molar heat capacity at constant pressure
79.17 K, Crystal	71.3 ± 1.8 J/K/mol
80 K, Crystal	71.33 ± 1.8 J/K/mol
81.36 K, Crystal	72.02 ± 1.8 J/K/mol
83.11 K, Crystal	72.63 ± 1.9 J/K/mol
85 K, Crystal	73.98 ± 1.9 J/K/mol
85.3 K, Crystal	73.72 ± 1.9 J/K/mol
87.49 K, Crystal	74.91 ± 1.9 J/K/mol
89.6 K, Crystal	76.29 ± 1.9 J/K/mol
90 K, Crystal	76.75 ± 2 J/K/mol
91.66 K, Crystal	77.86 ± 2 J/K/mol
93.69 K, Crystal	79.02 ± 2.1 J/K/mol
95 K, Crystal	79.6 ± 2.1 J/K/mol
95.68 K, Crystal	80.2 ± 2.1 J/K/mol
97.64 K, Crystal	81.37 ± 2.1 J/K/mol
99.56 K, Crystal	82.67 ± 2.1 J/K/mol
100 K, Crystal	82.48 ± 2.1 J/K/mol
101.45 K, Crystal	83.56 ± 2.1 J/K/mol
103.32 K, Crystal	84.39 ± 2.2 J/K/mol
105 K, Crystal	85.38 ± 2.2 J/K/mol
105.16 K, Crystal	85.43 ± 2.2 J/K/mol
106.97 K, Crystal	86.65 ± 2.2 J/K/mol
108.76 K, Crystal	87.94 ± 2.2 J/K/mol
110 K, Crystal	88.26 ± 2.2 J/K/mol
110.53 K, Crystal	88.83 ± 2.2 J/K/mol
112.28 K, Crystal	89.53 ± 2.2 J/K/mol
114 K, Crystal	90.58 ± 2.3 J/K/mol
115 K, Crystal	91.11 ± 2.3 J/K/mol
115.71 K, Crystal	91.48 ± 2.3 J/K/mol
117.4 K, Crystal	92.47 ± 2.3 J/K/mol
119.07 K, Crystal	93.42 ± 2.3 J/K/mol
120 K, Crystal	93.92 ± 2.3 J/K/mol
120.73 K, Crystal	94.06 ± 2.3 J/K/mol
122.36 K, Crystal	94.81 ± 2.3 J/K/mol
123.99 K, Crystal	95.87 ± 2.3 J/K/mol
125 K, Crystal	96.69 ± 2.3 J/K/mol
125.6 K, Crystal	96.98 ± 2.4 J/K/mol
127.19 K, Crystal	97.8 ± 2.4 J/K/mol
128.78 K, Crystal	98.46 ± 2.4 J/K/mol
130 K, Crystal	99.4 ± 2.4 J/K/mol
130.34 K, Crystal	99.55 ± 2.4 J/K/mol
131.9 K, Crystal	100.68 ± 2.4 J/K/mol
133.44 K, Crystal	101.08 ± 2.4 J/K/mol
134.97 K, Crystal	101.62 ± 2.4 J/K/mol
135 K, Crystal	102.07 ± 2.4 J/K/mol
136.49 K, Crystal	102.52 ± 2.4 J/K/mol
138 K, Crystal	103.61 ± 2.5 J/K/mol
139.5 K, Crystal	104.14 ± 2.5 J/K/mol
140 K, Crystal	104.7 ± 2.5 J/K/mol
140.99 K, Crystal	104.87 ± 2.5 J/K/mol
142.47 K, Crystal	105.48 ± 2.5 J/K/mol
143.93 K, Crystal	106.66 ± 2.5 J/K/mol
145 K, Crystal	107.29 ± 2.5 J/K/mol
145.39 K, Crystal	107.75 ± 2.5 J/K/mol
146.84 K, Crystal	108.26 ± 2.5 J/K/mol
148.28 K, Crystal	109.04 ± 2.5 J/K/mol
149.71 K, Crystal	109.83 ± 2.6 J/K/mol
150 K, Crystal	109.85 ± 2.6 J/K/mol
151.13 K, Crystal	111.12 ± 2.6 J/K/mol
152.54 K, Crystal	111.74 ± 2.6 J/K/mol
153.94 K, Crystal	112.08 ± 2.6 J/K/mol
155 K, Crystal	112.39 ± 2.6 J/K/mol
155.34 K, Crystal	112.93 ± 2.6 J/K/mol
157.51 K, Crystal	113.86 ± 2.6 J/K/mol
160 K, Crystal	114.92 ± 2.6 J/K/mol
160.42 K, Crystal	115.39 ± 2.6 J/K/mol
163.32 K, Crystal	116.39 ± 2.7 J/K/mol
165 K, Crystal	117.44 ± 2.7 J/K/mol
166.18 K, Crystal	117.94 ± 2.7 J/K/mol
169.01 K, Crystal	119.36 ± 2.7 J/K/mol
170 K, Crystal	119.97 ± 2.7 J/K/mol
171.81 K, Crystal	121.11 ± 2.7 J/K/mol
174.59 K, Crystal	122.69 ± 2.8 J/K/mol
175 K, Crystal	122.52 ± 2.8 J/K/mol
177.33 K, Crystal	124.06 ± 2.8 J/K/mol
180 K, Crystal	125.09 ± 2.8 J/K/mol
180.05 K, Crystal	125.43 ± 2.8 J/K/mol
182.75 K, Crystal	126.44 ± 2.8 J/K/mol
185 K, Crystal	127.68 ± 2.8 J/K/mol
185.43 K, Crystal	127.77 ± 2.8 J/K/mol
190 K, Crystal	130.3 ± 2.9 J/K/mol
190.71 K, Crystal	130.68 ± 2.9 J/K/mol
193.31 K, Crystal	131.82 ± 2.9 J/K/mol
195 K, Crystal	133 ± 2.9 J/K/mol
195.91 K, Crystal	133.03 ± 2.9 J/K/mol
198.41 K, Crystal	134.61 ± 3 J/K/mol
200 K, Crystal	135.65 ± 3 J/K/mol
200.76 K, Crystal	135.6 ± 3 J/K/mol
203.12 K, Crystal	136.47 ± 3 J/K/mol
205 K, Crystal	138.37 ± 3 J/K/mol
205.61 K, Crystal	137.67 ± 3 J/K/mol
208.11 K, Crystal	139.14 ± 3 J/K/mol
210 K, Crystal	141.12 ± 3.1 J/K/mol
210.61 K, Crystal	140.62 ± 3.1 J/K/mol
213.05 K, Crystal	142.39 ± 3.1 J/K/mol
215 K, Crystal	143.89 ± 3.1 J/K/mol
215.46 K, Crystal	143.66 ± 3.1 J/K/mol
217.88 K, Crystal	145.35 ± 3.1 J/K/mol
220 K, Crystal	146.69 ± 3.2 J/K/mol
220.3 K, Crystal	147.01 ± 3.2 J/K/mol
222.73 K, Crystal	148.63 ± 3.2 J/K/mol
225 K, Crystal	149.5 ± 3.2 J/K/mol
225.15 K, Crystal	150.44 ± 3.2 J/K/mol
227.5 K, Crystal	152.1 ± 3.2 J/K/mol
229.92 K, Crystal	153.24 ± 3.3 J/K/mol
230 K, Crystal	152.31 ± 3.2 J/K/mol
232.35 K, Crystal	154.92 ± 3.3 J/K/mol
234.92 K, Crystal	156.38 ± 3.3 J/K/mol
235 K, Crystal	155.12 ± 3.3 J/K/mol
237.8 K, Crystal	157.76 ± 3.3 J/K/mol
240 K, Crystal	157.9 ± 3.3 J/K/mol
240.46 K, Crystal	159.08 ± 3.3 J/K/mol
242.88 K, Crystal	160.14 ± 3.4 J/K/mol
245 K, Crystal	160.64 ± 3.4 J/K/mol
245.08 K, Crystal	161.43 ± 3.4 J/K/mol
247.12 K, Crystal	162.34 ± 3.4 J/K/mol
249.24 K, Crystal	163.27 ± 3.4 J/K/mol
250 K, Crystal	163.39 ± 3.4 J/K/mol
251.44 K, Crystal	164.55 ± 3.4 J/K/mol
253.56 K, Crystal	165.45 ± 3.5 J/K/mol
255 K, Crystal	166.07 ± 3.5 J/K/mol
255.68 K, Crystal	166.2 ± 3.5 J/K/mol
257.73 K, Crystal	166.92 ± 3.5 J/K/mol
259.85 K, Crystal	167.67 ± 3.5 J/K/mol
260 K, Crystal	168.69 ± 3.5 J/K/mol
261.89 K, Crystal	168.77 ± 3.5 J/K/mol
264.01 K, Crystal	169.61 ± 3.5 J/K/mol
265 K, Crystal	171.25 ± 3.5 J/K/mol
266.06 K, Crystal	170.55 ± 3.5 J/K/mol
268.03 K, Crystal	171.61 ± 3.5 J/K/mol
270 K, Crystal	173.73 ± 3.6 J/K/mol
270.08 K, Crystal	172.38 ± 3.6 J/K/mol
272.05 K, Crystal	173.75 ± 3.6 J/K/mol
274.01 K, Crystal	174.95 ± 3.6 J/K/mol
275 K, Crystal	176.14 ± 3.6 J/K/mol
275.99 K, Crystal	175.77 ± 3.6 J/K/mol
277.95 K, Crystal	176.86 ± 3.6 J/K/mol
279.85 K, Crystal	177.84 ± 3.6 J/K/mol
280 K, Crystal	178.48 ± 3.7 J/K/mol
281.74 K, Crystal	178.91 ± 3.7 J/K/mol
283.64 K, Crystal	179.72 ± 3.7 J/K/mol
285 K, Crystal	180.75 ± 3.7 J/K/mol
285.53 K, Crystal	180.86 ± 3.7 J/K/mol
287.42 K, Crystal	181.6 ± 3.7 J/K/mol
289.24 K, Crystal	182.74 ± 3.7 J/K/mol
290 K, Crystal	182.93 ± 3.7 J/K/mol
291.06 K, Crystal	183.73 ± 3.7 J/K/mol
292.88 K, Crystal	184.79 ± 3.8 J/K/mol
294.62 K, Crystal	185.72 ± 3.8 J/K/mol
295 K, Crystal	185.12 ± 3.8 J/K/mol
296.36 K, Crystal	186.66 ± 3.8 J/K/mol
298.03 K, Crystal	187.45 ± 3.8 J/K/mol
298.15 K, Crystal	186.47 ± 3.8 J/K/mol
299.7 K, Crystal	187.95 ± 3.8 J/K/mol
301.36 K, Crystal	188.77 ± 3.8 J/K/mol
303.86 K, Crystal	189.94 ± 3.8 J/K/mol
305 K, Crystal	189.4 ± 3.8 J/K/mol
306.12 K, Crystal	191.07 ± 3.9 J/K/mol
308.39 K, Crystal	191.8 ± 3.9 J/K/mol
310 K, Crystal	191.58 ± 3.9 J/K/mol
310.67 K, Crystal	192.53 ± 3.9 J/K/mol
312.95 K, Crystal	193.73 ± 3.9 J/K/mol
315 K, Crystal	193.86 ± 3.9 J/K/mol
319.7 K, Crystal	196.52 ± 3.9 J/K/mol
320 K, Crystal	196.27 ± 3.9 J/K/mol
321.89 K, Crystal	197.35 ± 4 J/K/mol
324.09 K, Crystal	198.21 ± 4 J/K/mol
325 K, Crystal	198.9 ± 4 J/K/mol
326.21 K, Crystal	199.12 ± 4 J/K/mol
328.41 K, Crystal	199.91 ± 4 J/K/mol
330 K, Crystal	201.83 ± 4 J/K/mol
330.53 K, Crystal	200.78 ± 4 J/K/mol
332.65 K, Crystal	201.79 ± 4 J/K/mol
334.67 K, Crystal	202.59 ± 4 J/K/mol
335 K, Crystal	205.15 ± 4.1 J/K/mol
336.74 K, Crystal	203.39 ± 4.1 J/K/mol
338.77 K, Crystal	205.71 ± 4.1 J/K/mol
340 K, Crystal	208.96 ± 4.1 J/K/mol
350 K, Liquid	208.08 ± 2.1 J/K/mol
350.08 K, Liquid	208.1 ± 2.1 J/K/mol
351.82 K, Liquid	208.76 ± 2.1 J/K/mol
353.56 K, Liquid	209.27 ± 2.1 J/K/mol
355 K, Liquid	209.85 ± 2.1 J/K/mol
355.74 K, Liquid	210.16 ± 2.1 J/K/mol
357.14 K, Liquid	210.51 ± 2.1 J/K/mol
358.64 K, Liquid	210.8 ± 2.1 J/K/mol
360 K, Liquid	211.16 ± 2.1 J/K/mol
361.51 K, Liquid	211.51 ± 2.1 J/K/mol
362.95 K, Liquid	211.74 ± 2.1 J/K/mol
364.32 K, Liquid	212.33 ± 2.1 J/K/mol
365 K, Liquid	212.44 ± 2.1 J/K/mol
365.61 K, Liquid	212.74 ± 2.1 J/K/mol
366.82 K, Liquid	213.06 ± 2.1 J/K/mol
367.95 K, Liquid	213.48 ± 2.1 J/K/mol
369.01 K, Liquid	213.84 ± 2.1 J/K/mol
369.7 K, Liquid	214.36 ± 2.1 J/K/mol
370 K, Liquid	214.39 ± 2.1 J/K/mol and 214.31 ± 2.1 J/K/mol
370.76 K, Liquid	214.45 ± 2.1 J/K/mol
371.51 K, Liquid	214.51 ± 2.1 J/K/mol and 214.66 ± 2.1 J/K/mol
